Assay results as given in ChEMBL document CHEMBL5620415, “Design, synthesis and anti-hepatic fibrosis activity of novel diphenyl vitamin D receptor agonists” (Eur J Med Chem, 2023).
The source made the active and inactive calls. The calls are words filed in the database; no cut-off is given here.

Experiments:
[1] = Cytotoxicity against human LX-2 cells by CCK-8 assay; type: toxicity, cell-based
[2] = molecular target: T1, Vitamin D3 receptor (Homo sapiens) (UniProt P11473); assay: Binding affinity to human full-length Vitamin D receptor assessed as relative binding affinity at 1 uM incubated for 2 hrs by fluorescence polarization based competitive binding assay relative to calcipotriol
T1 sequence (whole entry): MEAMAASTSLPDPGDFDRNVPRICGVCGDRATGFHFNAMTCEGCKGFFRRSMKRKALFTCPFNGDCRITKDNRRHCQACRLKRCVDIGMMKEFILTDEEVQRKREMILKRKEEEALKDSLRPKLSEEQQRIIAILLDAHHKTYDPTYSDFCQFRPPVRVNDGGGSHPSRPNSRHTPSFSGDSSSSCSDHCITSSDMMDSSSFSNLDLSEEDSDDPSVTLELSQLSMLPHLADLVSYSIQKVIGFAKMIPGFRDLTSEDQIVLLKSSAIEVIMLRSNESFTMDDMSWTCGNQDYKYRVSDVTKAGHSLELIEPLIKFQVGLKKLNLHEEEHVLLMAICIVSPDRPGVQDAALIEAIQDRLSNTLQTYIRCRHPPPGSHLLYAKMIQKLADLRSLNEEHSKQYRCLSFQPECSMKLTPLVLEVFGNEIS

[3] = molecular target: T1, Vitamin D3 receptor (Homo sapiens); assay: Agonist activity at Vitamin D receptor in human LX-2 cells assessed as transcriptional activity by measuring induction of CYP24A expression at 0.5 uM by RT-qPCR analysis relative to control; type: cell-based
Mus musculus [4] = assay: Anti-fibrotic effect in improving CCl4-induced hepatic fibrosis C57BL/6 mouse model assessed as decrease in liver to kidney brightness ratio at 500 ug/kg, po five times a week for 2 weeks by qualitative ultrasound imaging analysis; type: functional, organism-based; details: dose 500.0 µg/kg
Mus musculus [5] = assay: Anti-fibrotic effect in CCl4-induced hepatic fibrosis C57BL/6 mouse model assessed as inhibition of serum ALT level at 500 ug/kg, po five times a week for 2 weeks; type: functional, organism-based; details: dose 500.0 µg/kg
Mus musculus [6] = assay: Anti-fibrotic effect in CCl4-induced hepatic fibrosis C57BL/6 mouse model assessed as inhibition of serum AST level at 500 ug/kg, po five times a week for 2 weeks; type: functional, organism-based; details: dose 500.0 µg/kg
Mus musculus [7] = assay: Anti-fibrotic effect in CCl4-induced hepatic fibrosis C57BL/6 mouse model assessed as inhibition of proliferation of fibrous tissue at 500 ug/kg, po five times a week for 2 weeks by Hematoxylin-Eosin (H&E) staining based assay; type: functional, organism-based; details: dose 500.0 µg/kg
Mus musculus [8] = assay: Anti-fibrotic effect in improving CCl4-induced hepatic fibrosis C57BL/6 mouse model assessed as uniform liver parenchyma at 500 ug/kg, po five times a week for 2 weeks by qualitative ultrasound imaging analysis; type: functional, organism-based; details: dose 500.0 µg/kg
Mus musculus [9] = assay: Anti-fibrotic effect in CCl4-induced hepatic fibrosis C57BL/6 mouse model assessed as reduction the lesions at 500 ug/kg, po five times a week for 2 weeks by Hematoxylin-Eosin (H&E) staining based assay; type: functional, organism-based; details: dose 500.0 µg/kg
Mus musculus [10] = assay: Anti-fibrotic effect in CCl4-induced hepatic fibrosis C57BL/6 mouse model assessed as inhibition of collagen deposition at 500 ug/kg, po five times a week for 2 weeks by Masson's Trichrome […] staining based assay; type: functional, organism-based; details: dose 500.0 µg/kg
Mus musculus [11] = assay: Anti-fibrotic effect in CCl4-induced hepatic fibrosis C57BL/6 mouse model assessed as inhibition of proliferation of fibrous tissue at 500 ug/kg, po five times a week for 2 weeks by Masson's Trichrome […] staining based assay; type: functional, organism-based; details: dose 500.0 µg/kg
[12] = molecular target: T1, Vitamin D3 receptor (Homo sapiens); assay: Agonist activity at Vitamin D receptor in HEK293 cells assessed as receptor transactivation incubated for 48 hrs by dual-luciferase reporter assay; type: cell-based; details: filed as agonist, dose 0.01-1 µM
Mus musculus [13] = assay: Anti-fibrotic effect in CCl4-induced hepatic fibrosis C57BL/6 mouse model assessed as decrease in inflammatory cell infiltration at 500 ug/kg, po five times a week for 2 weeks by Masson's Trichrome staining based assay; type: functional, organism-based; details: dose 500.0 µg/kg
Mus musculus [14] = assay: Anti-fibrotic effect in CCl4-induced hepatic fibrosis C57BL/6 mouse model assessed as decrease in inflammatory cell infiltration at 500 ug/kg, po five times a week for 2 weeks by Hematoxylin-Eosin (H&E) staining based assay; type: functional, organism-based; details: dose 500.0 µg/kg
Mus musculus [15] = assay: Anti-fibrotic effect in CCl4-induced hepatic fibrosis C57BL/6 mouse model assessed as inhibition of serum total bile acid (TBA) level at 500 ug/kg, po five times a week for 2 weeks; type: functional, organism-based; details: dose 500.0 µg/kg
Mus musculus [16] = assay: Anti-fibrotic effect in CCl4-induced hepatic fibrosis C57BL/6 mouse model assessed as reduction in hepatic fibrosis lesions at 500 ug/kg, po five times a week for 2 weeks by Hematoxylin-Eosin (H&E) staining based assay; type: functional, organism-based; details: dose 500.0 µg/kg
Mus musculus [17] = assay: Anti-fibrotic effect in CCl4-induced hepatic fibrosis C57BL/6 mouse model assessed as reduction in hepatic fibrosis lesions at 500 ug/kg, po five times a week for 2 weeks by Masson's Trichrome staining based assay; type: functional, organism-based; details: dose 500.0 µg/kg
Mus musculus [18] = assay: Anti-fibrotic effect in CCl4-induced hepatic fibrosis C57BL/6 mouse model assessed as inhibition of collagen deposition at 500 ug/kg, po five times a week for 2 weeks by Hematoxylin-Eosin (H&E) staining based assay; type: functional, organism-based; details: dose 500.0 µg/kg
Mus musculus [19] = assay: Anti-fibrotic effect in CCl4-induced hepatic fibrosis C57BL/6 mouse model assessed as reduction the lesions at 500 ug/kg, po five times a week for 2 weeks by Masson's Trichrome staining based assay; type: functional, organism-based; details: dose 500.0 µg/kg

SMILES | RBA [2] [%] | IC50 [1] [µM] | other results
O=C(CCCOc1cccc(COc2ccc(CO)c(CO)c2)c1)N1CCCCC1 | 24.9 | > 30 | 
OCCCCCOc1cccc(/C=C/c2ccc(CO)c(CO)c2)c1 | 5.78 | > 30 | 
CC(O)CCCOc1cccc(/C=C/c2ccc(CO)c(CO)c2)c1 (stereo not given) | 8.67 | > 30 | 
OCCCCOc1cccc(CCc2ccc(CO)c(CO)c2)c1 | 32.4 | > 30 | Activity [3]: inactive
O=C(O)CCCOc1cccc(/C=C/c2ccc(CO)c(CO)c2)c1 | 37 | > 30 | 
CCCC(Oc1ccc(CO)c(CO)c1)c1cccc(OCCCC(O)(CC)CC)c1 (stereo not given) |  | > 30 | RBA ([2]; filed as agonist): 46.2%
OCc1ccc(/C=C/c2cccc(OCCCC(F)(F)F)c2)cc1CO | 30.1 | > 30 | Activity ([3]; filed as agonist): Active
CCC(O)(CC)CCCCCOc1cccc(/C=C/c2ccc(CO)c(CO)c2)c1 | 33.5 | > 30 | 
CCC(O)(CC)CCCCOc1cccc(/C=C/c2ccc(CO)c(CO)c2)c1 | 23.1 | > 30 | 
CC(C)(O)CCCOc1cccc(CCc2ccc(CO)c(CO)c2)c1 | 14.4 | > 30 | Activity [3]: inactive
CC(C)(O)CCCCOc1ccc(CCc2ccc(CO)c(CO)c2)cc1 | 11.6 | > 30 | Activity [3]: inactive
CCC(O)(CC)CCCOc1cccc(CCc2ccc(CO)c(CO)c2)c1 | 28.3 | > 30 | Activity [3]: inactive
CCC(O)(CC)CCOc1cccc(/C=C/c2ccc(CO)c(CO)c2)c1 | 38.1 | > 30 | 
OCCCCOc1cccc(/C=C/c2ccc(CO)c(CO)c2)c1 | 11.6 | > 30 | 
C=CCC(O)(CC=C)CCCCCOc1cccc(COc2ccc(CO)c(CO)c2)c1 |  | > 30 | RBA ([2]; filed as agonist): 46.2%; Activity ([3]; filed as agonist): Active
CCC(O)(CC)CCCOc1cccc(/C=C/c2ccc(CO)c(CO)c2)c1 |  | > 30 | Activity (Mus musculus [4]): Active; Activity (Mus musculus [5]): Active; Activity (Mus musculus [6]): Active; Activity (Mus musculus [7]): Active; RBA ([2]; filed as agonist): 48%; Activity (Mus musculus [8]): Active; Activity (Mus musculus [9]): Active; Activity (Mus musculus [10]): Active; Activity (Mus musculus [11]): Active; Activity [12]: Dose-Dependent Effect; Activity (Mus musculus [13]): Active; Activity ([3]; filed as agonist): Active; Activity (Mus musculus [14]): Active; Activity (Mus musculus [15]): Active; Activity (Mus musculus [16]): Active; Activity (Mus musculus [17]): Active; Activity (Mus musculus [18]): Active; Activity (Mus musculus [19]): Active
CCN(CC)CCCOc1cccc(COc2ccc(CO)c(CO)c2)c1 |  | > 30 | RBA ([2]; filed as agonist): 49.7%
CCn1c(C(=O)N[C@@H](C)CO)ccc1C(CC)(CC)c1ccc(OCC(O)C(C)(C)C)c(C)c1 (stereo not given in full) |  |  | Activity (Mus musculus [4]): Active; Activity (Mus musculus [7]): Active; Activity (Mus musculus [8]): Active; Activity (Mus musculus [9]): Active; Activity (Mus musculus [10]): Active; Activity (Mus musculus [11]): Active; Activity (Mus musculus [13]): Active; Activity (Mus musculus [14]): Active; Activity (Mus musculus [16]): Active; Activity (Mus musculus [17]): Active; Activity (Mus musculus [18]): Active; Activity (Mus musculus [19]): Active
C=CCC(O)(CC=C)CCCOc1cccc(/C=C/c2ccc(CO)c(CO)c2)c1 |  | > 30 | RBA ([2]; filed as agonist): 40.5%

Second part, led by results:

RBA [2] [%] | SMILES | IC50 [1] [µM] | other results
19.6 | COC(=O)CCCOc1cccc(COc2ccc(CO)c(CO)c2)c1 | > 30 | 
30.1 | CN1CCN(C(=O)CCCOc2cccc(COc3ccc(CO)c(CO)c3)c2)CC1 | > 30 | 
29.5 | COC(=O)CCCCCOc1cccc(COc2ccc(CO)c(CO)c2)c1 | > 30 | 
17.9 | O=C(CCCOc1cccc(COc2ccc(CO)c(CO)c2)c1)N1CCOCC1 | > 30 | 
8.67 | CCN(CC)C(=O)CCCOc1cccc(COc2ccc(CO)c(CO)c2)c1 | > 30 | 
9.83 | OCCCCCOc1cccc(COc2ccc(CO)c(CO)c2)c1 | > 30 | 
9.25 | OCCCCCCOc1cccc(COc2ccc(CO)c(CO)c2)c1 | > 30 | 
